Laboratory results reported in patent US12324805B2, “Cancer treatment” (LDN Pharma Limited, priority 2017, dated 2025).
Entries after “also recorded” stand apart in the source; their conditions may differ.

Columns and labels:
CB2 = test: Western blot of CB2 levels in MCF7 cells after drug treatment; type: cell-based; settings: two days; for levels of CB2 relative to controls: LDN 10 nM, 6BN 1 μM or 10 μM, Western blot densitometry normalised to GAPDH, vs no-drug controls
Protocol: Levels of Bcl2-associated death promoter (BAD), p21 protein, the opioid receptors kappa 1 (OPRK1) and mu 1 (OPRM1), and the cannabinoid receptors CBR1 (CB1) and CBR2 (CB2) are visualised by Western blot (left) against GAPDH as a loading control, and quantified via density analysis relative to GAPDH (right).
One illustrative and non-limiting experiment was carried out on cultures of MCF7 cells. In brief, either LDN at 10 nM or 6BN at 1 μM or 10 μM was administered in vitro to a culture for two days, after which the expression levels of BAD, p21, opioid receptors kappa and mu, CB1, CB2, and GAPDH (as a loading control) were analysed via Western blot and subsequent quantification via density measurement of the bands.
In full, MCF7 cells were seeded into 6-well plates at a density of 1×10^5/well and left to adhere over-night. Naltrexone (10 nM) or 6-β-naltrexol (1 μM or 10 μM) were added to the cells before harvesting cells for western blot analysis. Primary probing was performed with specific antibodies generated against BAD, p21, OPRK1, […], CBR-1 and CBR-2. […] Anti-GAPDH was used as a loading control. All antibodies were used at a dilution of 1:1000, followed by the appropriate HRP conjugated secondary antibodies also at a dilution of 1:1000. Bands were visualised by the SuperSignal chemiluminescent detection system, and densitometry of band intensity was determined using Adobe Photoshop CS3, v10.0, and normalised to the loading control.

MCF7 cells = test: Two-stage sequential treatment of MCF7 cells, cell number and viability (trypan blue); type: cell-based; settings: LDN (10 nM) or 6BN (10 μM) for 48 h, then cannabinoid (cannabidiol 10 μM) for 48 h, compared with other sequences
Protocol: Each treatment lasted four days and consisted of two days of treatment with the first agent (UN=control, LDN=Low Dose Naltrexone at 10 nM CBD=Cannabidiol, 6BN=6-β-naltrexol) before the second-named agent was introduced for a further two days.
Another illustrative and non-limiting experiment was carried out on cultures of MCF7 cells. In brief, the cultures were treated with LDN or 6BN for two days, after which a cannabinoid was administered for a further two days. Cell number and viability were assessed on day four. The sequence of the administration for each therapeutic agent was reversed and the experiment repeated.
In full, MCF7 cells were seeded into 6-well plates at a density of 1.5×10^4/well and left to adhere. Cells were then cultured with naltrexone (10 nM), 6-β-naltrexol (10 μM) or cannabidiol (10 μM). Drug-containing media was removed after 48 h, and cells were rinsed gently with drug-free medium. Fresh culture medium was then added to the cells supplemented with either naltrexone (10 nM), 6-β-naltrexol (10 μM) or cannabidiol (10 μM), as indicated in the graph. Cell number and viability were assessed a further 48 h later, with percentages of live and dead cells being discriminated by trypan blue dye exclusion. Data were then consolidated to compare the effect of sequence on overall effect.

Compound	rise in CB2 compared among the three treatments (CB2; 10 μM 6BN compared with 1 μM 6BN and 10 nM LDN)	levels of CB2 relative to controls (CB2)	inhibition of cancer cell proliferation, effect of schedule (MCF7 cells)
Oc1ccc2c3c1OC1C(O)CC[C@@]4(O)[C@@H](C2)N(CC2CC2)CC[C@]314 (some centres unmarked) [6BN, N-cyclopropylmethyl-7,8-dihydro-14-hydroxynorisomorphine]	highest	significant increase	most effective; also recorded: greater effect
O=C1CC[C@@]2(O)[C@H]3Cc4ccc(O)c5c4[C@@]2(CCN3CC2CC2)[C@H]1O5 [LDN, 17-cyclopropylmethyl-4.5α-epoxy-3,14-dihydroxymorphinan-6-one]	–	significant increase; also recorded: increased significantly	most effective; also recorded: more effectively; also recorded: greater effect
